target: T1, Recombinant human DGAT2 protein (Homo sapiens, UniProt Q96PD7); assay: Measurement of inhibitory effect against DGAT2 enzyme activity (SPA, Phospholipid FlashPlate, [14C]-TG production); format: biochemical; conditions: concentration inhibiting [14C]-labeled triacyl glycerol (TG) production by 50%; 2 μg DGAT2-membrane protein from Sf-21 cells, 37° C.
T1 construct: FLAG (DYKDDDDK); (N); made in house; host or cells: Sf-21 insect cells (BacPAK baculovirus system); used as a membrane preparation
T1 sequence (Q96PD7 1-388): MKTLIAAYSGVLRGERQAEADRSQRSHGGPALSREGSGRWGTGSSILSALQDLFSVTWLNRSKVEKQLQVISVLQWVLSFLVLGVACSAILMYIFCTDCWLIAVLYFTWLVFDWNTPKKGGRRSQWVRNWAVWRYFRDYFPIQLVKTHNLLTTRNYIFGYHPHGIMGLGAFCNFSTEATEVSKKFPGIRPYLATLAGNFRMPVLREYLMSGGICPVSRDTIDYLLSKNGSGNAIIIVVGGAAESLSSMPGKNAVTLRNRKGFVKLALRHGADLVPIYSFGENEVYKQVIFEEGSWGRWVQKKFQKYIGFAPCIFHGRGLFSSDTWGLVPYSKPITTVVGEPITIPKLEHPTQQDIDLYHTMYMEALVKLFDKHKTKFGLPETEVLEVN
Procedure: Experimental Example: Measurement of Inhibitory Effect Against DGAT2 Enzyme Activity
In order to prepare the pBacPAK9-DGAT2, which is DGAT2 expression vector, the human DGAT2 gene amplified by polymerase chain reaction (PCR) was cloned into the EcoR1 and Xho1 sites of the pBacPAK9 (clonctech) vector. The nucleotide sequence of the primers used in PCR was the forward primer 5′ […] and the reverse primer 5′ […]. The composition of the reaction solution was to contain 50 ng of cDNA clone (OriGene), 200 μM of dATP, dCTP, dTTP, dGTP, 200 nM of each primer, 1 unit of Tag DNA Polymerase (Toyobo), 1×PCR buffer, and the final volume was adjusted to 20 μl. The reaction conditions were denatured at 95° C. for 5 minutes, followed by 30 times of 94° C. for 20 seconds, 60° C. for 20 seconds, and 72° C. for 90 seconds, followed by further reaction at 72° C. for 7 minutes.
Recombinant human DGAT2 protein was expressed in Sf-21 cells, which are insect cells, by using the BacPack baculovirus expression system (Clontech). The brief manufacturing process is as follows. First, the pBacPAK9-DGAT2 expression vector was transfected with BacPAK6 virus DNA (Bsu36I digest) into sf21 cells using Bacfectin to prepare a recombinant DGAT2 expressing baculovirus. The thus prepared baculovirus was infected with Sf-21 cells at 10 MOI (multiplicity of infection), and after 72 hours, infected insect cells were collected and membrane proteins were isolated. For membrane protein separation, the cell pellet was dissolved in a sucrose solution containing 250 mM sucrose, 10 mM Tris (pH 7.4), and 1 mM ethylenediamine-tetraacetic acid (EDTA), and then homogenized by using a dounce homogenizer, and the supernatant was taken by centrifuging at 600×g for 15 minutes, and centrifuged at 100,000×g for 1 hour to discard the supernatant, and the remaining pellet was resuspended in 20 mM HEPES buffer (pH 7.4). The prepared DGAT2 overexpressing membrane protein was dispensed in 100 μl and stored at −80° C. until use. Protein concentration was quantified by using the BCA Protein Assay Kit (Thermo Scientific).
In vitro DGAT2 analysis was performed using a Phospholipid Flash Plate (PerkinElmer) based on the principle of SPA (Scintillation Proximity Assay). First, DGAT2 inhibition compounds serially diluted 5 times from 3 nM to 10 μM (final concentration, 1% DMSO) were mixed in a buffer solution containing 2 μg DGAT2-membrane protein and 20 mM HEPES, 20 mM MgCl2, 1 mg/mL BSA, 50 μM 1,2 sn-oleoyl glycerol (Sigma), put in a 96-well flash plate (FlashPlate) and reacted at 37° C. for 20 minutes, and then 1 μM [14C] ole oil CoA (PerkinElmer, NEC651050UC) was added to be a final volume of 100 μL and further reacted at 37° C. for 15 minutes. After the enzymatic reaction was completed, 100 μL of isopropanol was added, the plate was sealed with a film, and the plate was shaken slowly in a plate shaker. The next day, the amplified scintillation signal (cpm) in Topcounter (Packard) was measured to measure the degree of production of [14C]-labeled triacyl glycerol (TG) as a reaction product. The measured value when the compound was not treated was used as a positive control, and the measured value of the compound treated group was calculated as a relative % to measure the inhibition effect of the compound on TG production.

| Compound | IC50 |
| --- | --- |
| CCOc1ccccc1O[C@@H]1CCCN(c2cncc(NC(=O)c3cc(F)c(N4CCC(CC(=O)O)CC4)c(F)c3)n2)C1 [Example 58] | 7500 nM |
| CCOc1ccccc1O[C@@H]1CCCN(c2cncc(NC(=O)C3CCN(c4ccc(C(=O)O)cc4)CC3)n2)C1 [Example 59, (R)-4-(4-((6-(3-(2-ethoxyphenoxy)piperidin-1-yl)pyrazin-2-yl)carbamoyl)piperidin-1-yl)benzoic acid] | 1000 nM |
| CCOc1ccccc1O[C@@H]1CCCN(c2cncc(NC(=O)CCc3ccc(OC(C)(C)C(=O)O)cc3)n2)C1 [Example 60, (R)-2-(4-(3-((6-(3-(2-ethoxyphenoxy)piperidin-1-yl)pyrazin-2-yl)amino)-3-oxopropyl)phenoxy)-2-methylpropanoic acid] | 420 nM |
| CCOc1ccccc1O[C@@H]1CCCN(c2cncc(NC(=O)CCc3ccc(CCC(=O)O)cc3)n2)C1 [Example 61, (R)-3-(4-(3-((6-(3-(2-ethoxyphenoxy)piperidin-1-yl)pyrazin-2-yl)amino)-3-oxopropyl)phenyl)propanoic acid] | 150 nM |
| CCOc1ccccc1O[C@@H]1CCCN(c2cncc(NC(=O)c3ccc(Oc4ccc(C(=O)O)cc4)cc3)n2)C1 [Example 62, (R)-4-(4-((6-(3-(2-ethoxyphenoxy)piperidin-1-yl)pyrazin-2-yl)carbamoyl)phenoxy)benzoic acid] | 2100 nM |
| CCOc1ccccc1O[C@@H]1CCCN(c2cncc(NC(=O)Cc3ccc(C[C@@H](C)C(=O)O)cc3)n2)C1 [Example 63] | 140 nM |
| CCOc1ccccc1O[C@@H]1CCCN(c2cncc(NC(=O)Cc3ccc(C[C@H](C)C(=O)O)cc3)n2)C1 [Example 64] | 120 nM |
| CCOc1ccccc1O[C@@H]1CCCN(c2cccc(NC(=O)Cc3ccc(CC(=O)O)cc3)n2)C1 [Example 66, (R)-2-(4-(2-((6-(3-(2-ethoxyphenoxy)piperidin-1-yl)pyridin-2-yl)amino)-2-oxoethyl)phenyl)acetic acid] | 2700 nM |
| CCOc1ccccc1O[C@@H]1CCCN(c2cncc(NC(=O)Nc3ccc(CC(=O)O)cc3)n2)C1 [Example 67, (R)-2-(4-(3-(6-(3-(2-ethoxyphenoxy)piperidin-1-yl)pyrazin-2-yl)ureido)phenyl)acetic acid] | 6100 nM |
| CCOc1ccccc1O[C@@H]1CCCN(c2cccc(NC(=O)Cc3ccc(C(C)(C)C(=O)O)cc3)n2)C1 [Example 68, (R)-2-(4-(2-((6-(3-(2-ethoxyphenoxy)piperidin-1-yl)pyridin-2-yl)amino)-2-oxoethyl)phenyl)-2-methylpropanoic acid] | 630 nM |
| CCOc1ccccc1O[C@@H]1CCCN(c2cncc(NC(=O)Cc3ccc(C(C)(C)C(=O)O)cc3)n2)C1 [Example 69, (R)-2-(4-(2-((6-(3-(2-ethoxyphenoxy)piperidin-1-yl)pyrazin-2-yl)amino)-2-oxoethyl)phenyl)-2-methylpropanoic acid] | 970 nM |
| CCOc1ccccc1O[C@@H]1CCCN(c2cccc(NC(=O)CCc3ccc(C(C)(C)C(=O)O)cc3)n2)C1 [Example 70, (R)-2-(4-(3-((6-(3-(2-ethoxyphenoxy)piperidin-1-yl)pyridin-2-yl)amino)-3-oxopropyl)phenyl)-2-methylpropanoic acid] | 350 nM |
| CCOc1ccccc1O[C@@H]1CCCN(c2cccc(NC(=O)Cc3ccc(CC(C)(C)C(=O)O)cc3)n2)C1 [Example 71] | 250 nM |
| CCOc1ccccc1O[C@@H]1CCCN(c2cc(C(F)(F)F)nc(NC(=O)Cc3ccc(CC(C)(C)C(=O)O)cc3)n2)C1 [Example 72] | 1800 nM |
| CCOc1ccccc1O[C@@H]1CCCN(c2cncc(NC(=O)C(C)(C)c3ccc(CCC(=O)O)cc3)n2)C1 [Example 73, (R)-3-(4-(1-((6-(3-(2-ethoxyphenoxy)piperidin-1-yl)pyrazin-2-yl)amino)-2-methyl-1-oxopropan-2-yl)phenyl)propanoic acid] | 310 nM |
| C=C(CNc1ccc(CCC(=O)O)cc1)C(=O)Nc1cncc(N2CCC[C@@H](Oc3ccccc3OCC)C2)n1 [Example 74, (R)-3-(4-((2-((6-(3-(2-ethoxyphenoxy)piperidin-1-yl)pyrazin-2-yl)carbamoyl)allyl)amino)phenyl)propanoic acid] | 1300 nM |
| CCOc1ccccc1O[C@@H]1CCCN(c2cncc(NC(=O)C3CCN(c4ncc(C(=O)O)cn4)CC3)n2)C1 [Example 75, (R)-2-(4-((6-(3-(2-ethoxyphenoxy)piperidin-1-yl)pyrazin-2-yl)carbamoyl)piperidin-1-yl)pyrimidine-5-carboxylic acid] | 1200 nM |
| CCOc1cccnc1O[C@@H]1CCCN(c2cncc(NC(=O)[C@@H]3CCCN(c4cccc(CC(C)(C)C(=O)O)c4)C3)n2)C1 [Example 76] | 130 nM |
| CCOc1ccccc1O[C@@H]1CCCN(c2ccnc(NC(=O)C(C)(C)c3ccc(CC(C)(C)C(=O)O)cc3)n2)C1 [Example 77, (R)-3-(4-(1-((4-(3-(2-ethoxyphenoxy)piperidin-1-yl)pyrimidin-2-yl)amino)-2-methyl-1-oxopropan-2-yl)phenyl)-2,2-dimethylpropanoic acid] | 410 nM |
| CCOc1cccnc1O[C@@H]1CCCN(c2ccnc(NC(=O)C(C)(C)c3ccc(CC(C)(C)C(=O)O)cc3)n2)C1 [Example 78, (R)-3-(4-(1-((4-(3-((3-ethoxypyridin-2-yl)oxy)piperidin-1-yl)pyrimidin-2-yl)amino)-2-methyl-1-oxopropan-2-yl)phenyl)-2,2-dimethylpropanoic acid] | 2500 nM |
| CCOc1ccccc1O[C@@H]1CCCN(c2cncc(NC(=O)C3CCN(c4ccc(CC(=O)O)cc4)CC3)n2)C1 [Example 79, (R)-2-(4-(4-((6-(3-(2-ethoxyphenoxy)piperidin-1-yl)pyrazin-2-yl)carbamoyl)piperidin-1-yl)phenyl)acetic acid] | 930 nM |
| CCOc1ccccc1O[C@@H]1CCCN(c2cncc(NC(=O)C3CCN(c4ccc(C(C)(C)C(=O)O)cn4)CC3)n2)C1 [Example 81, (R)-2-(6-(4-((6-(3-(2-ethoxyphenoxy)piperidin-1-yl)pyrazin-2-yl)carbamoyl)piperidin-1-yl)pyridin-3-yl)-2-methylpropanoic acid] | 740 nM |
| CCOc1ccccc1O[C@@H]1CCCN(c2cncc(NC(=O)C3CCN(c4nnn(CC(=O)O)n4)CC3)n2)C1 [Example 82, (R)-2-(5-(4-((6-(3-(2-ethoxyphenoxy)piperidin-1-yl)pyrazin-2-yl)carbamoyl)piperidin-1-yl)-2H-tetrazol-2-yl)acetic acid] | 6800 nM |
| CCOc1ccccc1O[C@@H]1CCCN(c2cncc(NC(=O)C3CCN(C(=O)CCC(=O)O)CC3)n2)C1 [Example 83, (R)-4-(4-((6-(3-(2-ethoxyphenoxy)piperidin-1-yl)pyrazin-2-yl)carbamoyl)piperidin-1-yl)-4-oxobutanoic acid] | > 10000 nM |
| CCOc1ccccc1O[C@@H]1CCCN(c2cncc(NC(=O)C3CCN(CC(=O)O)CC3)n2)C1 [Example 84, (R)-2-(4-((6-(3-(2-ethoxyphenoxy)piperidin-1-yl)pyrazin-2-yl)carbamoyl)piperidin-1-yl)acetic acid] | > 10000 nM |

Source: patent publication US12637440B2, “Amide derivative useful as diacylglycerol acyltransferase 2 inhibitor, and use thereof” (LG CHEM, LTD., priority 2019, dated 2026)
